# Measurements from patent US9145436B2 (priority 2010, dated 2015).
# Assays:
# hERG = biological target: T1, hERG (Homo sapiens, UniProt Q12809); assay: hERG inhibition in Chinese hamster ovary cells expressing the hERG c-DNA (K+ currents); assay type: cell-based; conditions: CHO cells expressing hERG
# T1 construct: expressed in transfected cells; host or cells: Chinese hamster ovary (CHO) cells
# Description: A major drawback of macrocycles is the inhibition of cardiac ion channels and specifically the channel encoded by the hERG gene inhibition of which is associated with “long Q-T” syndrome in some patients. To determine risk of hERG inhibition, Compounds 2 and 3 were incubated with Chinese hamster ovary cells expressing the hERG c-DNA resulting in detectable K+ currents associated with hERG at the cell surface.
# [1] = test system: TNFa production in J774 cells; assay: Cytokine production in stimulated J774 cells, TNFa (ELISA); assay type: cell-based; conditions: Normal (LPS 0.1 μg/mL)
# Description: (§1) Various analogs were compared in vitro to determine key properties. Antibacterial effect was determined in representative Gram negative (E. coli) and positive (S. aureus) organisms using the method of example 16. Effects on lung inflammation were compared using the method of example 32. BALF (Bronchoalveolar Lavage Fluid) TNFa levels are determined by ELISA. In vitro toxicity is determined by growth inhibition of Jurkat lymphocytes in DMEM medium as determined using Alamar Blue reaction. Effects on cytokine production are determined in J774 cells stimulated with either LPS (0.1 μg/mL) or medium from J774 cells stimulated for 24 h with 0.2 μg/mL LPS. Cytokines are determined by ELISA and expressed as % DMSO control at 50 μM inhibitor concentration.
# [2] = test system: IL-10 production in J774 cells; assay: Cytokine production in stimulated J774 cells, IL-10 (ELISA); assay type: cell-based; conditions: Normal (LPS 0.1 μg/mL)
# Description: as §1
# BALF TNFa = assay: Airway inflammation by inhaled LPS, BALF TNFa by ELISA; assay type: in vivo, DBA or Swiss female mice; conditions: 20 μmol/kg i.n., 30 minutes prior to LPS challenge
# Description: as §1
# Airway inflammation is induced by inhalation of solutions containing bacterial LPS. 10 μg per mouse is provided intranasally in phosphate buffered saline. 90 minutes after challenge, bronchioalveolar lavage fluid is recovered from the lung using PBS (0.5 mL) injected into the lung via the trachea and frozen prior to analysis for cytokines by ELISA. TNFa is the primary cytokine measured. Compound 2 and other test substances are dissolved in 0.02% citric acid in water, and the pH of the resulting solution is set to 6.2. Compounds are administered 30 minutes prior to challenge either as 25 μL solutions for intranasal use, or as 125 μL volumes for p.o. application in 25 g DBA or Swiss female mice. The results of said interventions include reduction of lung and/or plasma cytokines. Example data are recorded in FIG. 13.
# Jurkat lymphocytes = assay: In vitro toxicity: growth inhibition of Jurkat lymphocytes, Alamar Blue; assay type: cell-based; conditions: DMEM medium
# Description: as §1
# [3] = test system: IL-12 production in J774 cells; assay: Cytokine production in stimulated J774 cells, IL-12 (ELISA); assay type: cell-based; conditions: Normal (LPS 0.1 μg/mL)
# Description: as §1
# E. coli = assay: Antibiotic dilution assay, E. coli; assay type: cell-based; conditions: Escherichia coli; liquid medium, OD600; read-out: Bacterial IC 50 (μM) E. Coli
# Description: (§2) The antibiotic activity of the compounds was determined via antibiotic dilution assay. After filling 100 μl growth medium into all the wells of a 96 well plate, the compounds were diluted from 1 mM to 0.010 μM. The growth control wells contained growth medium instead of inhibitory agents. The inhibitory control contained Compound 3 (200 μM). Suspensions of E. coli and B. pumilus in growth medium with an approximate OD600 of 0.03-0.04 were added to the diluted compounds, incubated for 6-8 hours on the shaker at 750 rpm and 37° C. until the growth control had reached an OD600 of about 0.6-0.8. The OD600 was then determined on a standard plate reader.
# as §1
# HepG2 = assay: Cytotoxicity of the substances (TC50), HepG2; assay type: cell-based; design: unit not given beside the values; conditions: HepG2 cells
# [4] = Exposure by LCMS analysis of organs; assay type: in vivo, bALBc mice
# Description: (§3) To determine the potential for toxic effects of compound 2 in higher animals, compound 2 was administered to bALBc mice orally as a suspension up to a dose of 400 μmole/kg/day for 7 days.
# Exposure to the compound was confirmed using LCMS analysis of organs. […] A mild increase in Compound 2 concentration relative the average bodily dose in liver and spleen is clear after 2 h. In kidney the increase appears later, after 24 h.
# DSS induced colitis = assay: Dextransulfate (DSS) model of inflammatory bowel disease; assay type: in vivo, female C57BLK6 mice; conditions: DSS 2.5% W/V in drinking water; relative to known compounds such as sulfasalazine
# Excerpt: Dextransulfate (DSS) is used to induce an inflammatory state in the gut of mice by providing it in the drinking water. In our model, DSS (ICN) was used at 2.5% W/V in drinking water for female C57BLK6 mice (ca. 20 g). Weight was monitored daily as were diarrhea, overall condition and occult blood. Depending on severity, animals were recovered at 5, 7 or 12 days after onset of DSS treatment, and colon and intestine material recovered for histological examination.
# Ames test (mutagenicity) = assay type: cell-based; conditions: up to 800 μg/plate (approx. 70 μM); absence and presence of metabolically active liver extract
# Description: The Ames test is well known in the art. To determine the mutagenic potential of compound 2, it was conducted up to a concentration of 800 μg/plate (approx. 70 μM, considering 20 ml medium in a petri dish).
# [5] = Toxicity on oral administration for 7 days; assay type: in vivo; conditions: orally as a suspension up to 400 μmole/kg/day for 7 days
# Description: as §3
# [6] = test system: GM_CSF production in J774 cells; assay: Cytokine production in stimulated J774 cells, GM-CSF (ELISA); assay type: cell-based; conditions: Cond. (medium from J774 cells stimulated 24 h with 0.2 μg/mL LPS)
# Description: as §1
# S. aureus = assay: Antibiotic dilution assay, S. aureus; assay type: cell-based; conditions: Staphylococcus aureus; liquid medium, OD600; read-out: Bacterial IC 50 (μM) S. Aureus
# Description: as §2, §1
# Jurkat = assay: Cytotoxicity of the substances (TC50), Jurkat; assay type: cell-based; conditions: Jurkat cells
# plasma TNFalpha = assay: Liver inflammation induced by LPS, plasma TNFalpha; assay type: in vivo, Lewis rats; conditions: 10 or 50 mg/kg; LPS 4 mg/kg i.p.; relative to vehicle treated controls
# Description: FIG. 12. Plasma TNFa production in Lewis rats in which liver damage is induced via injection of LPS (4 mg/kg), data are the mean of N=8 and are plotted with the 95% confidence interval.
# Application of high doses of LPS, e.g. 4 mg/kg i.p. results in the induction of liver inflammation and necrosis. This is reflected in signs such as elevated plasma TNFalpha levels. […] Data are recorded in FIG. 12.
# HeLa = assay: Cytotoxicity of the substances (TC50), HeLa; assay type: cell-based; conditions: HeLa cells
# collagen arthritis model = assay: Collagen arthritis model; assay type: in vivo, Male DBA mice; conditions: administered prior to or at the start of arthritis; 2 to 40 μmol kg−1; vs vehicle
# Description: The data are obtained using the collagen arthritis model. Male DBA mice (18-22 g) are subcutaneously injected at the tail base with bovine type II collagen (100 μL) on day 1 and day 21. Onset of arthritis occurs over the next 5 days. Treatments are typically selected from A) a mixture of a Compound such as Compound 2 (between 2 to 40 μmol kg^−1) and the vehicle which is typically 1% citratic acid in water or similar. The effect of treatment on arthritis is monitored daily by assessing body weight, paw thickness and qualitative evidence of arthritis (scored from 0 to 3, 0=no evidence of arthritis or inflammation, 3=frank swelling of the paw). At the end of qualitative assessment, animals are sacrificed for toxicological, histological and pathological analysis.
# T1 sequence (Q12809 whole entry): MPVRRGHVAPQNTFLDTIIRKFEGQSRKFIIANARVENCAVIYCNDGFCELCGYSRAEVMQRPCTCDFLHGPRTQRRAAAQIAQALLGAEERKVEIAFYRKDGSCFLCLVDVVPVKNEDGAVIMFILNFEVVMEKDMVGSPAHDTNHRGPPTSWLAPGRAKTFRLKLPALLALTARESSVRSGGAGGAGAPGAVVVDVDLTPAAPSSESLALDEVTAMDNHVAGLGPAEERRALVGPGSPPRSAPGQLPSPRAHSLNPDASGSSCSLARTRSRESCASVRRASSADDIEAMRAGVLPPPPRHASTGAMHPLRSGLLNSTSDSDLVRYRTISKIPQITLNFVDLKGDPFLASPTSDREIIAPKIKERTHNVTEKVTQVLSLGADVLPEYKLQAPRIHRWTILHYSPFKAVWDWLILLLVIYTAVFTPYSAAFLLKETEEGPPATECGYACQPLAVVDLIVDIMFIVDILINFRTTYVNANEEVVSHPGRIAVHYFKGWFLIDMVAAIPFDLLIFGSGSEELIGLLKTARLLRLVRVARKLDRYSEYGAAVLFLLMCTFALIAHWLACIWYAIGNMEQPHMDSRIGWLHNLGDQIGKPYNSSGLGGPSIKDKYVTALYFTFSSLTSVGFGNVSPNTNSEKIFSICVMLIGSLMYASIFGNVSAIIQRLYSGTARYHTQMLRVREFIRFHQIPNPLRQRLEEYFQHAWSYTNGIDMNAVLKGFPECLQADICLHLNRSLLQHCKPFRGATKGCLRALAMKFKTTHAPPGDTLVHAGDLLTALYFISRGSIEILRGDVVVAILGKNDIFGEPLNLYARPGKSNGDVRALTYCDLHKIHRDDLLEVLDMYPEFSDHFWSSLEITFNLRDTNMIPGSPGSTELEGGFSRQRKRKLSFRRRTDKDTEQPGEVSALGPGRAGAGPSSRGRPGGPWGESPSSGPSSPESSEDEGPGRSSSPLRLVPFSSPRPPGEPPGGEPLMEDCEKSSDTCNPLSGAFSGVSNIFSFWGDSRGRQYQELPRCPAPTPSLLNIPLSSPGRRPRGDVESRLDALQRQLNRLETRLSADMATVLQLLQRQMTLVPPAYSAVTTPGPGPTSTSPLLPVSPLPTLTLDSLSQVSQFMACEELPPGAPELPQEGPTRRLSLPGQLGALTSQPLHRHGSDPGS
smiles,measurement,setting,value
CC[C@H]1OC(=O)[C@H](C)C2(O)O[C@](C)(C[C@@H](C)CN(C)[C@H](C)[C@@H](O)[C@]1(C)O)[C@H](O[C@@H]1O[C@H](C)CC(N(C)C)[C@H]1O)[C@H]2C (some centres unmarked) [Compound 2],"hERG inhibition, potency relative to Compound 3",hERG,less potent inhibitor than the commercially available Compound 3
same,"Cytokine production in J774 cells as % DMSO control, TNFa Normal 50 μM",[1],68 % DMSO control
same,"Cytokine production in J774 cells as % DMSO control, IL-10 Normal 50 μM",[2],115 % DMSO control
same,BALF TNFa (% Vehicle) 20 μmol/kg i.n.,BALF TNFa,75 % Vehicle
same,Jurkat Cell toxicity Normal growth limit,Jurkat lymphocytes,100 µM
same,"Cytokine production in J774 cells as % DMSO control, IL-12 Normal 50 μM",[3],42 % DMSO control
same,IC50,E. coli,1000 µM
same,TC50 HepG2,HepG2,90
same,accumulation in organs,"[4]; kidney, liver and spleen, LCMS, oral dosing","slightly accumulated in kidney, liver and spleen"
same,fraction of the initial value detectable in organs,[4]; within 24 h,more than 50%
same,diarrhea severity,DSS induced colitis,reductions in diarrhea severity
same,mortality,DSS induced colitis,reduced mortality
same,weight loss,DSS induced colitis,protection against weight loss
same,mutagenic activity (Ames test),Ames test (mutagenicity),no mutagenic activity
same,gross toxic effect / weight gain,[5],continued to gain weight during this period suggesting no gross toxic effect
same,"Cytokine production in J774 cells as % DMSO control, GM_CSF Cond. 50 μM",[6],160 % DMSO control
same,IC50,S. aureus,1340 µM
same,TC50 Jurkat,Jurkat,40
same,plasma TNF levels,plasma TNFalpha,reduce plasma TNF levels relative to vehicle treated controls
same,TC50 HeLa,HeLa,>100
same,arthritis score,collagen arthritis model,reductions in score
same,loss in body weight associated with arthritis,collagen arthritis model,reduces loss in body weight
same,paw swelling,collagen arthritis model,"reductions in score, paw swelling"
